We go through 45 molecules from paper PMC4887496, “The Mouthparts Enriched Odorant Binding Protein 11 of the Alfalfa Plant Bug Adelphocoris lineolatus Displays a Preferential Binding Behavior to Host Plant Secondary Metabolites” (Frontiers in Physiology, 2016).

Like-named read-outs stand apart in the source and are kept apart here.

Test [1] addresses T1, recombinant AlinOBP11 (Adelphocoris lineolatus, UniProt F4Y5P9). The experiment in a line: biochemical. It is filed as binding.
The target of test [2] is T1, recombinant AlinOBP11. The experiment in a line: Binding of fluorescent probe 1-NPN to recombinant AlinOBP11 (fluorescence titration, Scatchard plot). The following applies: 2 μM protein in 50 mM Tris-HCl pH 7.4, 1-NPN 1 to 16 μM; read-out: dissociation constant of the AlinOBP11/1-NPN complex.
The next test relates to AlucOBP36. Also noted: method as in Hua et al., 2012. The following applies: antennae expressed AlucOBP36; ref Hua et al., 2012; cited from earlier work.
The mark [3] stands for this setting: 2 μM protein, 2 μM 1-NPN, 50 mM Tris-HCl pH 7.4, competitor 2 to 30 μM, 25°C, read-out: IC50 (μM) AlinOBP11.
Setting [4] is: calculated from IC50: Ki = [IC50]/(1+[1-NPN]/K1-NPN), 2 μM protein, 2 μM 1-NPN, pH 7.4, read-out: Ki (μM) AlinOBP11.

T1 sequence (F4Y5P9 entry or part of it): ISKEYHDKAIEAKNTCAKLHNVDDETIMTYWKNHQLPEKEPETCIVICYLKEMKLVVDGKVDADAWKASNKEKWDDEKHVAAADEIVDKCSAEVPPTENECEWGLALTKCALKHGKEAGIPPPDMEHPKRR

For `C=CC(C)(O)CCC=C(C)CCC=C(C)C` (mixture of isomers) [Nerolidol], the IC50 at recombinant AlinOBP11 [1] (setting [3]) turned out to be 27.2 ± 0.71 µM. For the same molecule, on recombinant AlinOBP11 [1] (setting [4]), the Ki was 20.8 ± 0.55 µM.

For the molecule `CCCCCCO` [1-Hexanol], at recombinant AlinOBP11 [1], the IC50 is over 30 µM. In the case of `c1ccc(Nc2cccc3ccccc23)cc1` [1-NPN, N-phenyl-1-naphthylamine], the Kd at recombinant AlinOBP11 [2] amounted to 5.86 ± 0.47 µM. Regarding `CCCCCC(C)=O` [2-Heptanone], the IC50 on recombinant AlinOBP11 [1] (setting [3]) was over 30 µM. `CCCCC(C)O` (stereo not shown) [2-Hexanol]: the IC50 at recombinant AlinOBP11 [1] (setting [3]) is over 30 µM.

Regarding `CCCCC(C)=O` [2-Hexanone], the IC50 at recombinant AlinOBP11 [1] was over 30 µM. For `CCCCCCC(C)=O` [2-Octanone], the IC50 on recombinant AlinOBP11 [1] (setting [3]) is over 30 µM. On the same count and under the same terms, the same measure for `Cc1ccc(C=O)cc1C` [3,4-Dimethyl-benzaldehyde]: over 30 µM; for `CCCC(=O)CC` [3-Hexanone]: over 30 µM.

For the molecule `CC(=O)CCC=C(C)C` [6-Methyl-5-hepten-2-one], the IC50 on recombinant AlinOBP11 [1] was over 30 µM. For `Oc1cc(O)c2c(c1)O[C@@H](c1ccc(O)c(O)c1)[C@H](O)C2` [(−)-Catechin], at recombinant AlinOBP11 [1] (setting [3]), the IC50 is 19.3 ± 0.93 µM. The Ki on recombinant AlinOBP11 [1] ([…], 2 μM protein, 2 μM 1-NPN, pH 7.4, read-out: Ki (μM) AlinOBP11) was 15.3 ± 0.7 µM.

With `CC(=O)c1ccccc1` [Acetophenone], the IC50 on recombinant AlinOBP11 [1] was over 30 µM.

Consider `CCCCCOC(C)=O` [Amyl acetate], for which the IC50 on recombinant AlinOBP11 [1] (setting [3]) is over 30 µM. `O=Cc1ccccc1` [Benzaldehyde]: the IC50 at recombinant AlinOBP11 [1] was over 30 µM. Regarding `CCCCOC(=O)CCC` [Butyl butyrate], the IC50 at recombinant AlinOBP11 [1] (setting [3]) was over 30 µM. Same read-out and setting: with `C=C/C(C)=C/CC=C(C)C` [E-β-Ocimene] the figure was over 30 µM. Turning to `CCCC(=O)OCC` [Ethyl butyrate], the IC50 on recombinant AlinOBP11 [1] was over 30 µM. Take `Cc1cc2c(C(C)C)c(O)c(O)c(C=O)c2c(O)c1-c1c(C)cc2c(C(C)C)c(O)c(O)c(C=O)c2c1O` [Gossypol]: at recombinant AlinOBP11 [1], the IC50 came to 4.45 ± 0.34 µM and the Ki was found to be 3.43 ± 0.32 µM. As to `CCCCCCC=O` [Heptanal], on recombinant AlinOBP11 [1], the IC50 was over 30 µM. Still for that read-out and setting: with `CCCCCC=O` [Hexanal] the figure was over 30 µM. Turning to `CCCCCCOC(=O)CCC` [Hexyl butyrate], on recombinant AlinOBP11 [1] (setting [3]), the half-inhibitory concentration (IC50) is over 30 µM.

On to `CCCCCCOC(=O)CCCCC` [Hexyl hexanoate], for which, at recombinant AlinOBP11 [1] (setting [3]), the IC50 is over 30 µM. Take `c1ccc2[nH]ccc2c1` [Indole]: the IC50 on recombinant AlinOBP11 [1] is over 30 µM. In the case of `C=C(C)[C@H]1CC=C(C)CC1` [Limonene], at recombinant AlinOBP11 [1] (setting [3]), the IC50 is over 30 µM. As for `COC(=O)c1ccccc1O` [Methyl salicylate], at recombinant AlinOBP11 [1], the half-inhibitory concentration (IC50) is over 30 µM. For the molecule `C=CC(=C)CCC=C(C)C` [Myrcene], at recombinant AlinOBP11 [1] (setting [3]), the IC50 was over 30 µM. In the case of `CCCCCCCCC=O` [Nonanal], the IC50 at recombinant AlinOBP11 [1] (setting [3]) is over 30 µM. On the same count and under the same terms, with `CCCCCCCCCOC(C)=O` [Nonyl acetate] the figure was over 30 µM. On to `CCCCCCCC=O` [Octanal], for which the IC50 on recombinant AlinOBP11 [1] (setting [3]) was over 30 µM. `CCCCCO` [Pentanol]: the 50% inhibitory concentration (IC50) at recombinant AlinOBP11 [1] (setting [3]) is over 30 µM.

As for `C[C@@H]1O[C@@H](OC[C@H]2O[C@@H](Oc3c(-c4ccc(O)c(O)c4)oc4cc(O)cc(O)c4c3=O)[C@H](O)[C@@H](O)[C@@H]2O)[C@H](O)[C@H](O)[C@H]1O.O` [Rutin hydrate], the half-inhibitory concentration (IC50) at recombinant AlinOBP11 [1] (setting [3]) turned out to be 9.89 ± 1.61 µM. Besides, the Ki on recombinant AlinOBP11 [1] (setting [4]) is 7.78 ± 1.23 µM. Also, the “binding abilities to AlucOBP36 (in words)” value in the test with AlucOBP36 is given as “better binding abilities”.

As to `CCCCCCCCCCC` [Undecane], at recombinant AlinOBP11 [1] (setting [3]), the IC50 is over 30 µM.

Regarding `CCCCC=O` [Valeraldehyde], the IC50 on recombinant AlinOBP11 [1] (setting [3]) is over 30 µM.

Take `CC/C=C\CCO` [cis-3-Hexen-1-ol]: at recombinant AlinOBP11 [1], the IC50 was over 30 µM. In the case of `CC/C=C\CCOC(C)=O` [cis-3-hexenyl acetate], the IC50 at recombinant AlinOBP11 [1] (setting [3]) was over 30 µM. Regarding `CC(C)=CCC/C(C)=C/CC/C(C)=C/CO` [trans,trans-Farnesol], the IC50 on recombinant AlinOBP11 [1] (setting [3]) was determined as 25.2 ± 2.36 µM. Besides, the Ki at recombinant AlinOBP11 [1] (setting [4]) is 19.3 ± 1.78 µM. With `CCC/C=C/C=O` [trans-2-Hexenal], the IC50 on recombinant AlinOBP11 [1] is over 30 µM. For `CCC/C=C/COC(=O)CCC` [trans-2-hexenyl butyrate], the 50% inhibitory concentration (IC50) on recombinant AlinOBP11 [1] (setting [3]) is over 30 µM. Still for that read-out and setting: the same measure for `C=CC(=C)CC/C=C(\C)CCC=C(C)C` [trans-β-Farnesene]: over 30 µM; for `C/C1=C\CC/C(C)=C/CC(C)(C)/C=C/C1` [α-Humulene]: over 30 µM. With `CC1=CC[C@H](C(C)C)C=C1` [α-Phellandrene], at recombinant AlinOBP11 [1], the IC50 is 26.2 ± 0.52 µM and the Ki amounted to 20.1 ± 0.41 µM.

Regarding `C=C1CC/C=C(\C)CC[C@@H]2[C@@H]1CC2(C)C` [β-Caryophyllene], on recombinant AlinOBP11 [1], the IC50 is over 30 µM. Same read-out and setting: with `CC(=O)/C=C/C1=C(C)CCCC1(C)C` [β-Ionone] the figure was over 30 µM.

As to `C=C1CCC2CC1C2(C)C` (stereo not drawn) [β-Pinene], the IC50 at recombinant AlinOBP11 [1] is over 30 µM.

With (+)-α-Pinene, the IC50 at recombinant AlinOBP11 [1] (setting [3]) is over 30 µM.

The IC50 is the concentration that inhibits the measured activity by half. One may read the Ki as a measure of affinity in units of concentration, obtained from inhibition or displacement.
